According to US20170239323A1, “ORITAVANCIN FORMULATIONS” (The Medicines Company, priority 2016, published 2017):

Test: pH adjustment of oritavancin/HPCD solution with 1N NaOH: visual observations
Type: physicochemical
Protocol: Reconstituting Orbactiv 400 mg (Oritavancin) in 20% w/v HPCD, diluting in saline then adjusting pH. The 50 mg/mL solution of oritavancin in 20% w/v HPCD (described in Table 3) was further diluted in 0.9% saline to 6 mg/mL in a small glass vial. The pH was adjusted using 1N NaOH. NaOH was added to the oritavancin solution in […] and vortexed. Visual observations and pH were recorded (Table 5).
Reconstituting Orbactiv 400 mg (Oritavancin) in 50% w/v HPCD aqueous solution, adjusting pH then diluting in saline. 6.269 g of HPCD was dissolved in 12.538 mL of water to make a 50% w/v solution (pH=7.23). Seven (7) mL of the 50% w/v solution was added to a 400 mg vial of Orbactiv for a target oritavancin concentration of 57.14 mg/mL. […] A 2 mL aliquot of 57.14 mg/mL was removed from the vial and placed in a small glass vial. The pH was adjusted to 6.5 using 1N NaOH. NaOH was added to the oritavancin solution in 5 μL increments and vortexed. Visual observations and pH were recorded (Table 6).
(§1) Reconstituting Orbactiv 400 mg (Oritavancin) in 50% w/v aqueous HPCD, adjusting pH then diluting in saline. 6.112 g of HPCD was dissolved in 12.224 mL of water to make a 50% w/v solution (pH=6.74). Seven (7) mL of the 50% w/v HPCD solution was added to a 400 mg vial of Orbactiv for a target oritavancin concentration of 57.14 mg/mL. […] A 3 mL aliquot of 57.14 mg/mL was removed from the vial and placed in a small glass vial. The pH was adjusted to 7 using 1N NaOH. NaOH was added to the oritavancin solution in 5 μL increments and vortexed. Visual observations and pH were recorded (Table 8).
as §1, with “20%” for “50%”, “3.555” for “6.112”, “17.775” for “12.224”, “(pH=6.88).” for “(pH=6.74).”, “recorded.” for “recorded”, “10).” for “8).”

CN[C@H](CC(C)C)C(=O)N[C@H]1C(=O)N[C@@H](CC(N)=O)C(=O)N[C@H]2C(=O)N[C@H]3C(=O)N[C@H](C(=O)N[C@H](C(=O)O)c4cc(O)cc(O)c4-c4cc3ccc4O)[C@H](O[C@H]3C[C@](C)(N)[C@@H](O)[C@H](C)O3)c3ccc(c(Cl)c3)Oc3cc2cc(c3O[C@@H]2O[C@H](CO)[C@@H](O)[C@H](O)[C@H]2O[C@H]2C[C@](C)(NCc3ccc(-c4ccc(Cl)cc4)cc3)[C@@H](O)[C@H](C)O2)Oc2ccc(cc2Cl)[C@H]1O [Oritavancin]
Observations (20% w/v HPCD reconstitution diluted in 0.9% saline, 1N NaOH 0 μL, pH 4.10, oritavancin 6.00 mg/mL): Clear, colorless solution
Observations (20% w/v HPCD reconstitution diluted in 0.9% saline, 1N NaOH 5 μL, pH 5.33, oritavancin 5.99 mg/mL): Clear, colorless solution
Observations (20% w/v HPCD reconstitution diluted in 0.9% saline, 1N NaOH 10 μL, pH 6.05, oritavancin 5.97 mg/mL): Clear, colorless solution
pH at which adjusting with 1N NaOH caused visible precipitation (20% w/v HPCD reconstitution diluted to 6 mg/mL in 0.9% saline): > 6
Observations (50% w/v HPCD reconstitution (2 mL aliquot), 1N NaOH 0 μL, pH 4.08, oritavancin 57.14 mg/mL): Clear, colorless solution
Observations (50% w/v HPCD reconstitution (2 mL aliquot), 1N NaOH 5 μL, pH 4.26, oritavancin 57.10 mg/mL): Clear, colorless solution
Observations (50% w/v HPCD reconstitution (2 mL aliquot), 1N NaOH 10 μL, pH 4.56, oritavancin 57.06 mg/mL): Clear, colorless solution
Observations (50% w/v HPCD reconstitution (2 mL aliquot), 1N NaOH 15 μL, pH 4.90, oritavancin 57.02 mg/mL): Clear, colorless solution
Observations (50% w/v HPCD reconstitution (2 mL aliquot), 1N NaOH 20 μL, pH 5.19, oritavancin 56.98 mg/mL): Clear, colorless solution
Observations (50% w/v HPCD reconstitution (2 mL aliquot), 1N NaOH 25 μL, pH 5.39, oritavancin 56.94 mg/mL): Clear, colorless solution
Observations (50% w/v HPCD reconstitution (2 mL aliquot), 1N NaOH 30 μL, pH 5.65, oritavancin 56.90 mg/mL): Clear, colorless solution.
Observations (50% w/v HPCD reconstitution (2 mL aliquot), 1N NaOH 35 μL, pH 5.81, oritavancin 56.86 mg/mL): Clear, colorless solution.
Observations (50% w/v HPCD reconstitution (2 mL aliquot), 1N NaOH 40 μL, pH 6.10, oritavancin 56.82 mg/mL): Clear, colorless solution.
Observations (50% w/v HPCD reconstitution (2 mL aliquot), 1N NaOH 45 μL, pH 6.17, oritavancin 56.78 mg/mL): Clear, colorless solution.
Observations (50% w/v HPCD reconstitution (2 mL aliquot), 1N NaOH 50 μL, pH 6.33, oritavancin 56.74 mg/mL): Clear, colorless solution.
Observations (50% w/v HPCD reconstitution (3 mL aliquot), 1N NaOH 0 μL, pH 4.05, oritavancin 57.14 mg/mL): Clear, colorless solution.
Observations (50% w/v HPCD reconstitution (3 mL aliquot), 1N NaOH 5 μL, pH 4.28, oritavancin 57.04 mg/mL): Clear, colorless solution
Observations (50% w/v HPCD reconstitution (3 mL aliquot), 1N NaOH 10 μL, pH 4.44, oritavancin 56.94 mg/mL): Clear, colorless solution
Observations (50% w/v HPCD reconstitution (3 mL aliquot), 1N NaOH 15 μL, pH 4.68, oritavancin 56.84 mg/mL): Clear, colorless solution
Observations (50% w/v HPCD reconstitution (3 mL aliquot), 1N NaOH 20 μL, pH 4.93, oritavancin 56.74 mg/mL): Clear, colorless solution
Observations (50% w/v HPCD reconstitution (3 mL aliquot), 1N NaOH 25 μL, pH 5.11, oritavancin 56.64 mg/mL): Clear, colorless solution
Observations (50% w/v HPCD reconstitution (3 mL aliquot), 1N NaOH 30 μL, pH 5.23, oritavancin 56.54 mg/mL): Clear, colorless solution
Observations (50% w/v HPCD reconstitution (3 mL aliquot), 1N NaOH 35 μL, pH 5.36, oritavancin 56.44 mg/mL): Clear, colorless solution
Observations (50% w/v HPCD reconstitution (3 mL aliquot), 1N NaOH 40 μL, pH 5.48, oritavancin 56.35 mg/mL): Clear, colorless solution.
Observations (50% w/v HPCD reconstitution (3 mL aliquot), 1N NaOH 45 μL, pH 5.77, oritavancin 56.24 mg/mL): Clear, colorless solution
Observations (50% w/v HPCD reconstitution (3 mL aliquot), 1N NaOH 50 μL, pH 5.82, oritavancin 56.14 mg/mL): Clear, colorless solution
Observations (50% w/v HPCD reconstitution (3 mL aliquot), 1N NaOH 55 μL, pH 5.85, oritavancin 56.03 mg/mL): Clear, colorless solution
Observations (50% w/v HPCD reconstitution (3 mL aliquot), 1N NaOH 60 μL, pH 5.94, oritavancin 55.93 mg/mL): Clear, colorless solution
Observations (50% w/v HPCD reconstitution (3 mL aliquot), 1N NaOH 65 μL, pH 6.05, oritavancin 55.83 mg/mL): Clear, colorless solution.
Observations (50% w/v HPCD reconstitution (3 mL aliquot), 1N NaOH 70 μL, pH 6.15, oritavancin 55.72 mg/mL): Clear, colorless solution
Observations (50% w/v HPCD reconstitution (3 mL aliquot), 1N NaOH 75 μL, pH 6.20, oritavancin 55.61 mg/mL): Clear, colorless solution
Observations (50% w/v HPCD reconstitution (3 mL aliquot), 1N NaOH 80 μL, pH 6.23, oritavancin 55.50 mg/mL): Clear, colorless solution
Observations (50% w/v HPCD reconstitution (3 mL aliquot), 1N NaOH 85 μL, pH 6.34, oritavancin 55.39 mg/mL): Clear, colorless solution
Observations (50% w/v HPCD reconstitution (3 mL aliquot), 1N NaOH 90 μL, pH 6.32, oritavancin 55.28 mg/mL): Clear, colorless solution
Observations (50% w/v HPCD reconstitution (3 mL aliquot), 1N NaOH 95 μL, pH 6.38, oritavancin 55.17 mg/mL): Clear, colorless solution
Observations (50% w/v HPCD reconstitution (3 mL aliquot), 1N NaOH 100 μL, pH 6.46, oritavancin 55.07 mg/mL): Clear, colorless solution.
Observations (50% w/v HPCD reconstitution (3 mL aliquot), 1N NaOH 105 μL, pH 6.57, oritavancin 54.95 mg/mL): Clear, colorless solution
Observations (50% w/v HPCD reconstitution (3 mL aliquot), 1N NaOH 110 μL, pH 6.59, oritavancin 54.84 mg/mL): Clear, colorless solution
Observations (50% w/v HPCD reconstitution (3 mL aliquot), 1N NaOH 115 μL, pH 6.71, oritavancin 54.73 mg/mL): Clear, colorless solution
Observations (50% w/v HPCD reconstitution (3 mL aliquot), 1N NaOH 120 μL, pH 6.70, oritavancin 54.61 mg/mL): Clear, colorless solution
Observations (50% w/v HPCD reconstitution (3 mL aliquot), 1N NaOH 125 μL, pH 6.75, oritavancin 54.50 mg/mL): Clear, colorless solution.
Observations (50% w/v HPCD reconstitution (3 mL aliquot), 1N NaOH 130 μL, pH 6.90, oritavancin 54.38 mg/mL): Clear, colorless solution
Observations (50% w/v HPCD reconstitution (3 mL aliquot), 1N NaOH 135 μL, pH 6.90, oritavancin 54.26 mg/mL): Clear, colorless solution
Observations (50% w/v HPCD reconstitution (3 mL aliquot), 1N NaOH 140 μL, pH 6.96, oritavancin 54.14 mg/mL): Clear, colorless solution.
